In paper PMC11995216, “End-to-End Backbone Cyclization Enhances Passive Permeability of bRo5 Oligomeric Depsipeptides with Nonlinear Size Dependence” (ACS Medicinal Chemistry Letters, 2025):
“And” between values parts separate entries of the source, which are not always exact repeats. Equal values may be shown once. Read-outs that look alike come from different tables or passages of the source.

Tests used:
[1] = calculated using Supplement Equation 1, UV detection
[2] = tested on: PAMPA; details: UV detection
[3] = UV detection
[4] = PAMPA, permeability assay across an artificial membrane

CCCCC[C@H](OC(=O)[C@@H](C)N(C)C(=O)[C@H](CCCCC)OC(=O)[C@@H](C)N(C)C(=O)[C@H](CCCCC)OC(=O)[C@@H](C)N(C)C(=O)[C@H](CCCCC)OC(=O)[C@@H](C)N(C)C(=O)[C@H](CCCCC)OC(=O)[C@@H](C)N(C)C(=O)[C@H](CCCCC)OC(=O)[C@@H](C)N(C)C(=O)OC(C)(C)C)C(=O)OCc1ccccc1 [Compound L1.6]
%T ([1]; Well 1 / %T, Well 1): 0.32% and 0.44%
%T ([1]; Well 2 / %T, Well 2): 0.37% and 0.33%
%T ([1]; Well 3 / %T, Well 3): 0.44% and 0.4%
%T ([1]; Well 4 / %T, Well 4): 0.41%
%T ([1]; Well 5 / %T, Well 5): 0.37%
Papp ([2]; Papp (x 10^-6 cm/s) / experiment 1): 0.4 ×10⁻⁶ cm/s
Papp ([2]; Papp (x 10^-6 cm/s) / experiment 2): 0.44 ×10⁻⁶ cm/s
Papp ([2]; Papp (x 10^-6 cm/s) / experiment 3): 0.41 ×10⁻⁶ cm/s
Papp ([2]; Papp (x 10^-6 cm/s) / experiment 5): 0.44 ×10⁻⁶ cm/s
Papp ([2]; Papp (x 10^-6 cm/s) / experiment 6): 0.43 ×10⁻⁶ cm/s
Papp ([2]; Papp (x 10^-6 cm/s) / experiment 7): 0.41 ×10⁻⁶ cm/s
Papp ([2]; Papp (x 10^-6 cm/s) / experiment 8): 0.43 ×10⁻⁶ cm/s
Papp ([2]; Papp (x 10^-6 cm/s) / experiment 10): 0.4 ×10⁻⁶ cm/s
donor concentration after incubation (Well 1 / [donor]): 435 µM and 410 µM
donor concentration after incubation (Well 2 / [donor]): 398 µM and 434 µM
donor concentration after incubation (Well 3 / [donor]): 424 µM and 410 µM
donor concentration after incubation (Well 4 / [donor]): 416 µM and 415 µM
donor concentration after incubation (Well 5 / [donor]): 403 µM and 438 µM
% recovery ([3]; Well 1 / %R, Well 1): 87% and 82%
% recovery ([3]; Well 2 / %R, Well 2): 80% and 87%
% recovery ([3]; Well 3 / %R, Well 3): 85% and 82%
% recovery ([3]; Well 4 / %R, Well 4): 83%
% recovery ([3]; Well 5 / %R, Well 5): 81% and 88%
Diffusion (%) ([4]; PAMPA percent diffusion, C0 500 uM): < 5%
Recovery (%) ([4]; PAMPA, (acceptor + donor)/total analyte, C0 500 uM): 84%
Papp ([4]; PAMPA, Papp, ratio-based method, mean ± SD, C0 500 uM, UV detection): 0.42 ×10⁻⁶ cm/s
recovery ([4]; PAMPA, Recovery (%), PAMPA, (acceptor + donor)/total analyte, C0 500 uM): 83.7%
Acceptor Concentration, Ave ([4]; PAMPA, after incubation, UV detection, C0 500 uM): < 25 µM
Δ % diffusion ([4]; increase: difference between percent diffusion of macrocycle vs linear counterpart): ↑2%
